According to patent publication US8796320B2, “1,3,4-Oxadiazole-2-carboxamide compound” (General Incorporated Association Pharma Valley Project …, priority 2009, dated 2014):

Key:
[1] = system: STAT3; experiment: STAT3 transcription inhibition test (reporter gene method); type: cell-based; details: compound at 100 μM, STAT3 reporter HeLa stable cell line, oncostatin M 10 ng/mL, 4 hours; for inhibition at 100 µM: Homo sapiens, read-out: STAT3 transcription inhibitory activity (%)
Description: The inhibition of STAT3 transcription was evaluated by using STAT3 reporter HeLa stable cell line (Panomics Inc., catalog No. RC0003), a cell line for the reporter gene method, and performing the following method according to the appendix included therein.
STAT3, reporter HeLa stable cell line subcultured and maintained in a Dulbecco's modified Eagle's medium (DMEM) containing 10% fetal bovine serum, 100 units/mL penicillin, and 100 μg/mL streptomycin was inoculated at a concentration of 40000 cells/well to a 96-well plate (white) and attached to the plate by overnight incubation at 37° C. under 5% CO2. After addition of each evaluation compound adjusted to various concentrations (adjusted with a DMSO solution), the cells were precultured for 1 hour. Then, oncostatin M for activating STAT3 was added at a final concentration 10 ng/mL, and the cells were further cultured at 37° C. under 5% CO2 for 4 hours. Luciferase activity derived from the cells was determined using Steady-Glo Luciferase Assay System (Promega Corp.), and STAT3 transcriptional activity scores were calculated according to the following formula: STAT3 transcriptional activity score (%)=100×(Lchem−L0)/(LDMSO−L0) • L0: luminescence intensity obtained without stimulation with oncostatin M • Lchem: luminescence intensity obtained by the addition of a test sample • LDMSO: luminescence intensity obtained by the addition of only a solvent for dissolving a test sample
The test results were indicated in the rate of inhibition of STAT3 transcription by each compound at a concentration of 100 μM.

[2] = system: MDA-MB-468; experiment: MDA-MB-468 cell growth inhibitory activity; type: cell-based; details: Homo sapiens; compound at 20 μM; MDA-MB-468, 72 hours
Description: MDA-MB-468 diluted with phenol red-free DMEM/F-12 (GIBCO; 10% FBS, 20 units/ml penicillin/streptomycin) was inoculated at a concentration of 2000 cells/well to a 96-well plate (Greiner Bio-One) and cultured overnight at 37° C. in the presence of 5% CO2. Then, a test sample solution (containing 2 (v/v)% DMSO) adjusted to 10 μM was added thereto at a concentration of 10 μL/well and contacted with the cells at 37° C. for 72 hours in the presence of 5% CO2. Each well was washed three times with a medium. Then, after addition of 100 μL/well of a medium and 20 μL/well of CellTiter 96 AQueous, One Solution Reagent (Promega Corp.), the cells were incubated at 37° C. for 2 hours in the presence of 5% CO2. Absorbance at 495 nm was measured using Multiplate reader (Molecular Devices, Inc.), and the rate of inhibition of cell growth was calculated according to the following formula: Rate of inhibition of cell growth (%)=100−100×(Abschem−bkgd)/(AbsDMSO−bkgd) • Abschem: absorbance obtained by the addition of a test sample • AbsDMSO: absorbance obtained by the addition of only a solvent for test sample dissolution • bkgd: absorbance obtained by the addition of CellTiter 96 AQueous One Solution Reagent to a medium for cell culture
The test results were indicated in the rate of inhibition of cell growth by each compound at a concentration of 20 μM.

`O=C(Nc1nnc(-c2ccco2)o1)c1cccc(-c2ccccc2)c1` [Compound Ia-1, N-[5-(2-Furyl)-1,3,4-oxadiazol-2-yl]-3-biphenylcarboxamide] was tested, and the inhibition at 100 µM [1] was 60%.

`O=C(Nc1nnc(-c2ccco2)o1)c1cccc(-c2cccc([N+](=O)[O-])c2)c1` [Compound Ia-5, N-[5-(2-Furyl)-1,3,4-oxadiazol-2-yl]-3′-nitro-3-biphenylcarboxamide] was tested, and the inhibition at 20 µM [2] was 88% and the inhibition at 100 µM [1] was 98%.

`O=C(Nc1nnc(-c2ccco2)o1)c1cccc(-c2ccc(F)cc2)c1` [Compound Ia-10, 4′-Fluoro-N-[5-(2-furyl)-1,3,4-oxadiazol-2-yl]-3-biphenylcarboxamide] gave an inhibition at 100 µM [1] of 97%.

Compound `Cc1ccc(-c2cccc(C(=O)Nc3nnc(-c4ccco4)o3)c2)cc1` [Compound Ia-12, N-[5-(2-Furyl)-1,3,4-oxadiazol-2-yl]-4′-methyl-3-biphenylcarboxamide] has an inhibition at 20 µM [2] of 61% and an inhibition at 100 µM [1] of 83%.

`COc1ccc(-c2cccc(C(=O)Nc3nnc(-c4ccco4)o3)c2)cc1` [Compound Ia-16, N-[5-(2-Furyl)-1,3,4-oxadiazol-2-yl]-4′-methoxy-3-biphenylcarboxamide] showed an inhibition at 100 µM [1] of 57%.

For `O=C(Nc1nnc(-c2ccco2)o1)c1cccc(-c2ccc(C(=O)c3ccccc3)cc2)c1` [Compound Ia-19, 4′-Benzoyl-N-[5-(2-furyl)-1,3,4-oxadiazol-2-yl]-3-biphenylcarboxamide], the inhibition at 20 µM [2] was 94% and the inhibition at 100 µM [1] was 55%.

For `O=C(Nc1nnc(-c2ccco2)o1)c1cccc(-c2ccc([N+](=O)[O-])cc2)c1` [Compound Ia-24, N-[5-(2-Furyl)-1,3,4-oxadiazol-2-yl]-4′-nitro-3-biphenylcarboxamide], the inhibition at 20 µM [2] was 97% and the inhibition at 100 µM [1] was 94%.

In the case of `Cc1cc(C#N)ccc1-c1cccc(C(=O)Nc2nnc(-c3ccco3)o2)c1` [Compound Ia-29, 4′-Cyano-N-[5-(2-furyl)-1,3,4-oxadiazol-2-yl]-2′-methyl-3-biphenylcarboxamide], the inhibition at 20 µM [2] was 87% and the inhibition at 100 µM [1] was 81%.

For `O=C(Nc1nnc(-c2ccco2)o1)c1cccc(-c2ccc3ccccc3c2)c1` [Compound Ia-33, N-[5-(2-Furyl)-1,3,4-oxadiazol-2-yl]-3-(2-naphthyl)benzenecarboxamide], the inhibition at 20 µM [2] was 98% and the inhibition at 100 µM [1] was 90%.

`Cc1ccc(-c2cccc(C(=O)Nc3nnc(-c4ccco4)o3)c2)o1` [Compound Ia-34, N-[5-(2-Furyl)-1,3,4-oxadiazol-2-yl]-3-(5-methyl-2-furyl)benzenecarboxamide] gave an inhibition at 100 µM [1] of 78%.

`O=C(Nc1nnc(-c2ccco2)o1)c1cccc(-c2ccc3c(c2)OCO3)c1` [Compound Ia-42, N-[5-(2-Furyl)-1,3,4-oxadiazol-2-yl]-3-(3,4-methylenedioxyphenyl)benzenecarboxamide] showed an inhibition at 100 µM [1] of 88%.

Compound `O=C(Nc1nnc(-c2ccco2)o1)c1cccc(-c2ccc3sccc3c2)c1` [Compound Ia-47, 3-(5-Benzothienyl)-N-[5-(2-furyl)-1,3,4-oxadiazol-2-yl]benzenecarboxamide] has an inhibition at 20 µM [2] of 53% and an inhibition at 100 µM [1] of 58%.

In the case of `Cn1ccc2cc(-c3cc(F)cc(C(=O)Nc4nnc(-c5ccco5)o4)c3)ccc21` [Compound Ia-52, 5-Fluoro-N-[5-(2-furyl)-1,3,4-oxadiazol-2-yl]-3-(1-methyl-5-indolyl)benzenecarboxamide], the inhibition at 20 µM [2] was 91% and the inhibition at 100 µM [1] was 71%.

Work on `O=C(Nc1nnc(-c2ccco2)o1)c1cc(-c2ccc(Cl)cc2)nc(-c2ccc(Br)cc2)c1` [Compound Ia-56, 2-(4-Bromophenyl)-6-(4-chlorophenyl)-N-[5-(2-furyl)-1,3,4-oxadiazol-2-yl]-4-pyridinecarboxamide] yielded an inhibition at 20 µM [2] of 61% and an inhibition at 100 µM [1] of 87%.

Work on `C[Si](C)(C)c1ccc(-c2cccc(C(=O)Nc3nnc(-c4ccco4)o3)c2)cc1` [Compound Ia-62, N-[5-(2-Furyl)-1,3,4-oxadiazol-2-yl]-4′-trimethylsilyl-3-biphenylcarboxamide] yielded an inhibition at 20 µM [2] of 71% and an inhibition at 100 µM [1] of 76%.

With `O=C(Nc1nnc(-c2ccco2)o1)c1cccc(-c2ccc(Oc3ccccc3)cc2)c1` [Compound Ia-66, N-[5-(2-Furyl)-1,3,4-oxadiazol-2-yl]-4′-phenoxy-3-biphenylcarboxamide] the inhibition at 20 µM [2] was 59% and the inhibition at 100 µM [1] was 58%.

Compound `COC(=O)c1ccc(-c2cccc(C(=O)Nc3nnc(-c4ccco4)o3)c2)cc1` [Compound Ia-69, N-[5-(2-Furyl)-1,3,4-oxadiazol-2-yl]-4′-methoxycarbonyl-3-biphenylcarboxamide] has an inhibition at 20 µM [2] of 69% and an inhibition at 100 µM [1] of 53%.

In the case of `O=C(Nc1nnc(-c2ccco2)o1)c1cccc(-c2ccc(-c3ccc(Cl)cc3)cc2)c1` [Compound Ia-77, 4″-Chloro-N-[5-(2-furyl)-1,3,4-oxadiazol-2-yl]-3-(p-terphenyl)carboxamide], the inhibition at 20 µM [2] was 76% and the inhibition at 100 µM [1] was 80%.

Compound `CC(C)Oc1ccc(-c2ccc(-c3cccc(C(=O)Nc4nnc(-c5ccco5)o4)c3)cc2)cc1` [Compound Ia-81, N-[5-(2-Furyl)-1,3,4-oxadiazol-2-yl]-4″-isopropoxy-3-(p-terphenyl)carboxamide] has an inhibition at 20 µM [2] of 78% and an inhibition at 100 µM [1] of 63%.

With `O=C(Nc1nnc(-c2ccco2)o1)c1cccc(-c2ccc(-c3cccc4ccccc34)cc2)c1` [Compound Ia-82, N-[5-(2-Furyl)-1,3,4-oxadiazol-2-yl]-4′-(1-naphthyl)-3-biphenylcarboxamide] the inhibition at 20 µM [2] was 75% and the inhibition at 100 µM [1] was 54%.

`O=C(Nc1nnc(-c2ccco2)o1)c1cccc(-c2ccc(CCN3CCOCC3)cc2)c1` [Compound Ia-90, N-[5-(2-Furyl)-1,3,4-oxadiazol-2-yl]-4′-(2-morpholinoethyl)-3-biphenylcarboxamide] showed an inhibition at 100 µM [1] of 97%.

With `O=C(Nc1nnc(-c2ccco2)o1)c1cccc(-c2cnc3ccccc3c2)c1` [Compound Ia-99, N-[5-(2-Furyl)-1,3,4-oxadiazol-2-yl]-3-(3-quinolyl)benzenecarboxamide] the inhibition at 20 µM [2] was 55% and the inhibition at 100 µM [1] was 78%.

With `O=C(Nc1nnc(-c2ccco2)o1)c1cc(-c2cccc(Cl)c2)nc2nc(N3CCCCC3)sc12` [Compound Ib-2, 5-(3-Chlorophenyl)-N-[5-(2-furyl)-1,3,4-oxadiazol-2-yl]-2-piperidino-7-thiazolo[4,5-b]pyridinecarboxamide] the inhibition at 20 µM [2] was over 100% and the inhibition at 100 µM [1] was 68%.

`O=C(Nc1nnc(-c2ccco2)o1)c1ccc(-c2cccc(Cl)c2)o1` [Compound Ic-4, 5-(3-Chlorophenyl)-N-[5-(2-furyl)-1,3,4-oxadiazol-2-yl]-2-furancarboxamide] was tested, and the inhibition at 100 µM [1] was 81%.

`CCOC(=O)c1ccc(-c2ccc(C(=O)Nc3nnc(-c4ccco4)o3)o2)cc1` [Compound Ic-12, 5-(4-Ethoxycarbonylphenyl)-N-[5-(2-furyl)-1,3,4-oxadiazol-2-yl]-2-furancarboxamide] gave an inhibition at 100 µM [1] of 73%.

In the case of `O=C(Nc1nnc(-c2ccco2)o1)c1ccc(-c2ccc([N+](=O)[O-])cc2Cl)o1` [Compound Ic-14, 5-(2-Chloro-4-nitrophenyl)-N-[5-(2-furyl)-1,3,4-oxadiazol-2-yl]-2-furancarboxamide], the inhibition at 100 µM [1] was 51%.

`O=C(Nc1nnc(-c2ccco2)o1)c1ccc(-c2cc([N+](=O)[O-])ccc2Cl)o1` [Compound Ic-19, 5-(2-Chloro-5-nitrophenyl)-N-[5-(2-furyl)-1,3,4-oxadiazol-2-yl]-2-furancarboxamide] showed an inhibition at 100 µM [1] of 56%.

In the case of `O=C(Nc1nnc(-c2ccco2)o1)c1ccc(-c2cc(Cl)cc(Cl)c2)o1` [Compound Ic-21, 5-(3,5-Dichlorophenyl)-N-[5-(2-furyl)-1,3,4-oxadiazol-2-yl]-2-furancarboxamide], the inhibition at 100 µM [1] was 64%.

With `Cc1oc(-c2ccccc2)cc1C(=O)Nc1nnc(-c2ccco2)o1` [Compound Ic-22, N-[5-(2-Furyl)-1,3,4-oxadiazol-2-yl]-2-methyl-5-phenyl-3-furancarboxamide] the inhibition at 100 µM [1] was 65%.

For `O=C(Nc1nnc(-c2ccco2)o1)c1nc(-c2ccc(F)cc2)n2c1CCCCC2` [Compound Ic-26], the “STAT3 transcription inhibitory activity (%)” value [1] was 58%.
